Measured values reported in ChEMBL document CHEMBL1131627, “Noncalcemic, antiproliferative, transcriptionally active, 24-fluorinated hybrid analogues of the hormone 1alpha, 25-dihydroxyvitamin D3. Synthesis and preliminary biological evaluation” (J Med Chem, 1998).

Biological target: T1, Vitamin D3 receptor (Rattus norvegicus) (UniProt P13053)
T1 sequence (whole entry): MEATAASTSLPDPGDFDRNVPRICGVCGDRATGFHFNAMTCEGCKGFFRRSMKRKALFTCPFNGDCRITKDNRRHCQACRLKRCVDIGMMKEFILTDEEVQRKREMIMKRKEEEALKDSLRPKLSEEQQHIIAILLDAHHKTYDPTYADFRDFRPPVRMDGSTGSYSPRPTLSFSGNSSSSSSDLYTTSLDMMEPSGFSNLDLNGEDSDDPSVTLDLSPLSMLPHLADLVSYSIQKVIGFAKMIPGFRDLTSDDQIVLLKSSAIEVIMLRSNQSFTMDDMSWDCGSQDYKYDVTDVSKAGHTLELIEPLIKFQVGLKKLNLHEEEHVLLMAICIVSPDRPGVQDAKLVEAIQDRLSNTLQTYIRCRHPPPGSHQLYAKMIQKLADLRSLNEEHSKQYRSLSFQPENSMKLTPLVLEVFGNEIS
Assay: Vitamin D receptor mediated transcriptional activity in rat osteosarcoma ROS 17/2.8 cells

| ED50 | SMILES |
| --- | --- |
| 0.3 nM | C=C1/C(=C\C=C2/CCC[C@]3(C)[C@@H]([C@H](C)CCCC(C)(C)O)CC[C@@H]23)C[C@@H](O)C[C@@H]1O |
| 0.05 nM | C=C1/C(=C\C=C2/CCC[C@]3(C)C([C@H](C)CCC(F)(F)C(O)(CC)CC)=CC[C@@H]23)C[C@H](O)C[C@H]1CO |
| 0.2 nM | C=C1/C(=C\C=C2/CCC[C@]3(C)C([C@H](C)CCC(F)(F)C(C)(C)O)=CC[C@@H]23)C[C@H](O)C[C@H]1CO |
